One may read the IC50 as the midpoint of a concentration-inhibition curve.

Type in all cases: biochemical
Assay [1] concerns the target T1, recombinant Aurora A (Homo sapiens, UniProt O14965).
T1 construct: purchased Upstate, Lake Placid, N.Y
T1 sequence (O14965 1-403): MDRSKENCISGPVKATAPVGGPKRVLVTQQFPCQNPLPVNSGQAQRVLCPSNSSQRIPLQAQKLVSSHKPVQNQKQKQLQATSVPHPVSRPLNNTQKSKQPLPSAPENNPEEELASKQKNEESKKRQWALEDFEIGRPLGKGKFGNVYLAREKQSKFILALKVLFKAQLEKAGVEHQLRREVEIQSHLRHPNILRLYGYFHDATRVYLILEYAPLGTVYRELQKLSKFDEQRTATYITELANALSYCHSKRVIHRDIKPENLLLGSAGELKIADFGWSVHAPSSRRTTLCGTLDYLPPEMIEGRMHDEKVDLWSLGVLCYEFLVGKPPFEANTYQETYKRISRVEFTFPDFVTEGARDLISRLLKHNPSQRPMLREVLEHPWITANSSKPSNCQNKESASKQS
Put plainly: Aurora A (Aurora 2) inhibition assay, Z'-Lyte kinase assay. The settings on record: ATP 10 μM, 1 h. The method, boiled down:
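Z'-Lyte FRET assay: Aurora A (200-500 ng/mL final), Ser/Thr 1 peptide (2 μM) and ATP (10 μM) in 50 mM HEPES pH 7.5, 10 mM MgCl2, 5 mM EGTA, 0.05% Brij-35, 2 mM DTT, 1 h at room temperature. Coumarin/fluorescein emission ratio converted to percent phosphorylation; dose-response curves plotted.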

The target in assay [2] is T2, Aurora B kinase (Homo sapiens, UniProt Q96GD4).
T2 construct: purchased BPS Biosciences, San Diego, Calif
Put plainly: Aurora B (Aurora 1) inhibition assay. The settings on record: ATP 50 μM, 16 h. The procedure: Compounds were tested for their potency against recombinant Aurora A (Upstate, Lake Placid, N.Y.) using the PanVera Z′-Lyte kinase assay kit—Ser/Thr 1 peptide (Invitrogen, Carlsbad, Calif.). Assays were carried out in kinase assay buffer (50 mM HEPES, pH 7.5, 10 mM MgCl2, 5 mM EGTA, 0.05% Brij-35, 2 mM DTT). Test compounds were initially dissolved in DMSO at 100× the highest tested concentration, then serially diluted to 4× test concentrations in kinase assay buffer. Next, Aurora A (final concentration 200-500 ng/mL), Z′-Lyte Ser/Thr 1 peptide (final concentration 2 μM) and ATP (final concentration 10 μM) were added according to the manufacturer's instructions. Assays were carried out in half-area 96-well white polystyrene assay plates (Corning, Corning, N.Y.) in a final volume of 20 μl. The reaction was allowed to proceed for 1 h at room temperature in the dark, at which point the development reagent and stop reagent were added according to the manufacturer's instructions. Coumarin (Ex. 400 nm, Em. 465 nm) and fluorescein (Ex. 400 nm, Em. 565 nm) fluorescence values were measured on a SpectraFluor Plus plate reader (Tecan, Durham, N.C.). The emission ratio (coumarin/fluorescein) was determined and used to calculate the percent phosphorylation for each well. Wells containing substrate but no kinase and wells containing a phosphopeptide control were used to set 0% and 100% phosphorylation values, respectively. Typically 20-40% of the substrate was phosphorylated in wells without inhibitor. Dose-response curves of relative Aurora A activity vs. inhibitor concentration were plotted with Grafit (Erithacus Software, Horley, Surrey, UK).
Assays for Aurora B kinase inhibition were carried out similarly to those for Aurora A kinase (see above) with the following modifications. Aurora B kinase (BPS Biosciences, San Diego, Calif.) was used as the enzyme, at a concentration was 2.5 μg/mL. The ATP concentration was 50 μM, and the kinase reaction was allowed to proceed for 16 h. Sodium orthovanadate (20 μM) was added to the buffer to inhibit contaminating phosphatases.

Assay [3] concerns the target T3, N-terminal His-tagged human Src (Homo sapiens, UniProt P12931).
T3 construct: His (N); purchased Upstate USA Inc, 706 Forest Street, Charlottesville, Va
Description: Src kinase inhibition assay (33P-ATP filter assay).

[4] abbreviates: group with IC50 greater than 100 nM.

Bounds are passed on as bounds.

T3 sequence (P12931 whole entry): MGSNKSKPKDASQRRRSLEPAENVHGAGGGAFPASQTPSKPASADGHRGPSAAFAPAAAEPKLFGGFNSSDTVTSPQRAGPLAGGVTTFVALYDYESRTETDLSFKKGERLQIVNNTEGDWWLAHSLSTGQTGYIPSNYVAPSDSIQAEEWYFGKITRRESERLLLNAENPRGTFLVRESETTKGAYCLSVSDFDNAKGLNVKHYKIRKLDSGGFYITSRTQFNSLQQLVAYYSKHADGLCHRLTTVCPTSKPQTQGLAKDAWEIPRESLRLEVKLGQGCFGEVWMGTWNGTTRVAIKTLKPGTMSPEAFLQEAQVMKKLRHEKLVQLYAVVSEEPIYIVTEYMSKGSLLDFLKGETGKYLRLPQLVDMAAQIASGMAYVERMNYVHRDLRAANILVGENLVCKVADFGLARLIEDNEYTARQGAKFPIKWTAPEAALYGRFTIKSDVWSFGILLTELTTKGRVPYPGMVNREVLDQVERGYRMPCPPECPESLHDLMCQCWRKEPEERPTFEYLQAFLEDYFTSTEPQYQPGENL
T2 sequence (Q96GD4 whole entry): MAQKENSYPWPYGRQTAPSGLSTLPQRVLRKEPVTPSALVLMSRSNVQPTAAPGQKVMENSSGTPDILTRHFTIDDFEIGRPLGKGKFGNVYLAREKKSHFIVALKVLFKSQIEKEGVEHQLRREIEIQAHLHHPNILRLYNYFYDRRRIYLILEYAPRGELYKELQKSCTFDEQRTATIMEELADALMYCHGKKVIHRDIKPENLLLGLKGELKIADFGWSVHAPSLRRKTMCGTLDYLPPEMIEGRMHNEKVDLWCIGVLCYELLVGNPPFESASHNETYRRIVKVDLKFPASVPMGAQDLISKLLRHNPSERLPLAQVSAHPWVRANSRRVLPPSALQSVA

For `CC(=O)c1cccc(-c2nc(Nc3cc(C)[nH]n3)cc(N3CCN(C)CC3)n2)c1` [Example 165, 1-(3-(4-(5-methyl-1H-pyrazol-3-ylamino)-6-(4-methylpiperazin-1-yl)pyrimidin-2-yl)phenyl)ethanone], the IC50 in assay [1] is not above 100 nM; in assay [2], not above 1000 nM.
In the case of `Cc1cc(Nc2cc(NC3CCOCC3)nc(-c3ccc4c(c3)OCCO4)n2)n[nH]1` [Example 130, 2-(2,3-dihydrobenzo[b][1,4]dioxin-6-yl)-N^4-(5-methyl-1H-pyrazol-3-yl)-N^6-(tetrahydro-2H-pyran-4-yl)pyrimidine-4,6-diamine], the IC50 in assay [1] was not above 100 nM; in assay [3] (40 minutes at room temperature) it was not above 100 nM; in assay [2], not above 1000 nM.
For `Cc1cc(Nc2cc(N3CCN(C)CC3)nc(-c3ccc4c(c3)OCCO4)n2)n[nH]1` [Example 137, 2-(2,3-dihydrobenzo[b][1,4]dioxin-6-yl)-N-(5-methyl-1H-pyrazol-3-yl)-6-(4-methylpiperazin-1-yl)pyrimidin-4-amine], the IC50 in assay [1] is not above 100 nM; in assay [3] (40 minutes at room temperature), not above 100 nM; in assay [2] it was not above 1000 nM.
Regarding `Cc1cc(Nc2cc(NC3CCOCC3)nc(-c3cc4ccccc4o3)n2)n[nH]1` [Compound 15, 2-(benzofuran-2-yl)-N^4-(tetrahydro-2H-pyran-4-yl)-N^6-(5-methyl-1H-pyrazol-3-yl)-pyrimidine-4,6-diamine], the IC50 in assay [1] was not above 100 nM; in assay [3] (40 minutes at room temperature) it was not above 100 nM; in assay [2] it was not above 1000 nM.
On to `CCOc1cccc(-c2nc(Nc3cc(C)[nH]n3)cc(N3CCN(C)CC3)n2)c1` [Example 190, 2-(3-ethoxyphenyl)-N-(5-methyl-1H-pyrazol-3-yl)-6-(4-methylpiperazin-1-yl)pyrimidin-4-amine], for which the results for the IC50 in assay [1], in assay [3] (40 minutes at room temperature) and in assay [2] were not above 100 nM, not above 100 nM and not above 1000 nM, respectively.
`Cc1cc(Nc2cc(NC3CCOCC3)nc(-c3cccc(N(C)C)c3)n2)n[nH]1` [Compound 74, 2-(3-(dimethylamino)phenyl)-N^4-(5-methyl-1H-pyrazol-3-yl)-N^6-(tetrahydro-2H-pyran-4-yl)pyrimidine-4,6-diamine]: the IC50 was not above 100 nM in assay [1], not above 100 nM in assay [3] (40 minutes at room temperature) and not above 1000 nM in assay [2].
Take `Cc1cc(Nc2cc(N3CCN(C)CC3)nc(-c3ccccc3)n2)n[nH]1` [Compound 8, N-(5-methyl-1H-pyrazol-3-yl)-6-(4-methylpiperazin-1-yl)-2-phenyl pyrimidin-4-amine]: the concentration for half-maximal inhibition (IC50) in assay [1] is not above 100 nM; in assay [3] (40 minutes at room temperature), not above 100 nM; in assay [2], not above 1000 nM.
For `Cc1cc(Nc2cc(N3CCN(C)CC3)nc(-c3cc(F)cc(F)c3)n2)n[nH]1` [Example 170, 2-(3,5-difluorophenyl)-N-(5-methyl-1H-pyrazol-3-yl)-6-(4-methylpiperazin-1-yl)pyrimidin-4-amine], the values for the half-inhibitory concentration (IC50) in assay [1], in assay [3] (40 minutes at room temperature) and in assay [2] were not above 100 nM, not above 100 nM and not above 1000 nM, respectively.
As for `Cc1cc(Nc2cc(N3CCN(C)CC3)nc(-c3cccc(F)c3)n2)n[nH]1` [Compound 33, 2-(3-fluorophenyl)-N-(5-methyl-1H-pyrazol-3-yl)-6-(4-methylpiperazin-1-yl)pyrimidin-4-amine], the IC50 is not above 100 nM in assay [1], not above 100 nM in assay [3] (40 minutes at room temperature) and not above 1000 nM in assay [2].
On to `Cc1cc(Nc2cc(NC3CCOCC3)nc(-c3cccc(F)c3)n2)n[nH]1` [Compound 20, 2-(3-fluorophenyl)-N^4-(5-methyl-1H-pyrazol-3-yl)-N^6-(tetrahydro-2H-pyran-4-yl)pyrimidine-4,6-diamine], for which the IC50 in assay [1] is not above 100 nM; in assay [3] (40 minutes at room temperature) it was not above 100 nM; in assay [2], not above 1000 nM.
Take `Cc1cc(Nc2cc(N3CCN(C)CC3)nc(-c3cccc([N+](=O)[O-])c3)n2)n[nH]1` [Example 162, N-(5-methyl-1H-pyrazol-3-yl)-6-(4-methylpiperazin-1-yl)-2-(3-nitrophenyl)pyrimidin-4-amine]: the IC50 in assay [1] was not above 100 nM; in assay [3] (40 minutes at room temperature) it was not above 100 nM; in assay [2] it was not above 1000 nM.
On to `Cc1cc(Nc2cc(N3CCN(C)CC3)nc(-c3cccc(C#N)c3)n2)n[nH]1` [Example 163, 3-(4-(5-methyl-1H-pyrazol-3-ylamino)-6-(4-methylpiperazin-1-yl)pyrimidin-2-yl)benzonitrile], for which the results for the IC50 in assay [1], in assay [3] (40 minutes at room temperature) and in assay [2] were not above 100 nM, not above 100 nM and not above 1000 nM, respectively.
As for `Cc1cc(Nc2cc(N3CCN(C)CC3)nc(-c3cccc(-c4ccccc4)c3)n2)n[nH]1` [Compound 16, 2-(biphenyl-3-yl)-N-(5-methyl-1H-pyrazol-3-yl)-6-(4-methylpiperazin-1-yl)pyrimidin-4-amine], the half-maximal inhibitory concentration (IC50) in assay [1] is not above 100 nM; in assay [3] (40 minutes at room temperature) it was not above 100 nM; in assay [2] it was not above 1000 nM.
Turning to `Cc1cc(Nc2cc(N3CCN(C)CC3)nc(-c3ccc(F)cc3)n2)n[nH]1` [Compound 32, 2-(4-fluorophenyl)-N-(5-methyl-1H-pyrazol-3-yl)-6-(4-methylpiperazin-1-yl)pyrimidin-4-amine], the IC50 in assay [1] and in assay [3] (40 minutes at room temperature) was not above 100 nM each time.
For `Cc1cc(Nc2cc(N3CCN(C)CC3)nc(-c3cccc(C(F)(F)F)c3)n2)n[nH]1` [Compound 101, N-(5-methyl-1H-pyrazol-3-yl)-6-(4-methylpiperazin-1-yl)-2-(3-(trifluoromethyl)phenyl)pyrimidin-4-amine], the IC50 in assay [1] was not above 100 nM; in assay [3] (setting [4]) it was not above 1000 nM.
In the case of `Cc1cc(Nc2cc(N3CCN(C)CC3)nc(-c3ccc([N+](=O)[O-])cc3)n2)n[nH]1` [Example 164, N-(5-methyl-1H-pyrazol-3-yl)-6-(4-methylpiperazin-1-yl)-2-(4-nitrophenyl)pyrimidin-4-amine], the half-inhibitory concentration (IC50) was not above 1000 nM in assay [1] (setting [4]) and not above 100 nM in assay [3] (40 minutes at room temperature).
Take `Cc1cccc(-c2nc(Nc3cc(C)[nH]n3)cc(N3CCN(C)CC3)n2)c1` [Compound 39, N-(5-methyl-1H-pyrazol-3-yl)-6-(4-methylpiperazin-1-yl)-2-m-tolylpyrimidin-4-amine]: the IC50 in assay [1] and in assay [3] (40 minutes at room temperature) was not above 100 nM each time.
Consider `COc1ccc(-c2nc(Nc3cc(C)[nH]n3)cc(N(C)CCN(C)C)n2)cc1` [Compound 54, N^4-(2-(dimethylamino)ethyl)-2-(4-methoxyphenyl)-N^4-methyl-N^6-(5-methyl-1H-pyrazol-3-yl)pyrimidine-4,6-diamine], for which the IC50 was not above 1000 nM in assay [1] (setting [4]) and not above 100 nM in assay [3] (40 minutes at room temperature).
`COCCN(C)c1cc(Nc2cc(C)[nH]n2)nc(-c2cccc(N(C)C)c2)n1` [Compound 119, 2-(3-(dimethylamino)phenyl)-N^4-(2-methoxyethyl)-N^4-methyl-N^6-(5-methyl-1H-pyrazol-3-yl)pyrimidine-4,6-diamine]: the IC50 in assay [1] and in assay [3] (40 minutes at room temperature) was not above 100 nM each time.
Consider `CCc1ccccc1-c1nc(Nc2cc(C)[nH]n2)cc(N2CCN(C)CC2)n1` [Example 175, 2-(2-ethylphenyl)-N-(5-methyl-1H-pyrazol-3-yl)-6-(4-methylpiperazin-1-yl)pyrimidin-4-amine], for which the concentration for half-maximal inhibition (IC50) in assay [1] (setting [4]) and in assay [3] (setting [4]) was not above 1000 nM each time.
Take `Cc1cc(Nc2cc(NCCN3CCOCC3)nc(-c3cc4ccccc4n3C)n2)n[nH]1` [Compound 5, 2-(1-methyl-1H-indol-2-yl)-N^4-(5-methyl-1H-pyrazol-3-yl)-N^6-(2-morpholinoethyl)pyrimidine-4,6-diamine]: the IC50 in assay [1] (setting [4]) was not above 1000 nM; in assay [3] (40 minutes at room temperature), not above 100 nM.
Regarding `Cc1cc(Nc2cc(N3CCN(C)CC3)nc(-c3cc4ccccc4n3C)n2)n[nH]1` [Compound 2, 2-(1-methyl-1H-indol-2-yl)-N-(5-methyl-1H-pyrazol-3-yl)-6-(4-methylpiperazin-1-yl)pyrimidin-4-amine], the IC50 in assay [1] and in assay [3] (40 minutes at room temperature) was not above 100 nM each time.

Source of the values: patent publication US20090029992A1, “SUBSTITUTED PYRAZOLE COMPOUNDS” (priority 2007, published 2009).
